From patent US11274095B2, “Modulators of methyl modifying enzymes, compositions and uses thereof” (Constellation Pharmaceuticals, Inc., priority 2018, dated 2022)

What was measured:
[1] = Cellular permeability in MDCK assay; format: in vitro ADME; details: dog, pH 7.4, MDCK II, with P-gp inhibitor GF120918 10 μM; for efflux ratio at 2.5 h, 2 μM: Papp(BA)/Papp(AB)
Method: Cell culture: MDCK II cells (obtained from Piet Borst at the Netherlands Cancer Institute) were seeded onto […] (PET) in 96-well BD insert systems at 2.5×10^5 cells/mL until to 4-7 days for confluent cell monolayer formation.
Experimental procedure: Test and reference compounds (nadolol, metoprolol and digoxin) were diluted with transport buffer (HBSS with 10mM Hepes, pH7.4) from stock solution to a concentration of 2 μM (<1% DMSO) and applied to the apical (A) or basolateral (B) side of the cell monolayer. Permeation of the test compounds from A to B direction or B to A direction was determined in duplicate with P-gp inhibitor (GF120918, 10 μM). Digoxin was tested at 10 μM from A to B direction or B to A direction with/without P-gp inhibitor (GF120918, 10 μM) as well, while nadolol and metoprolol were tested at 2 μM in A to B direction without P-gp inhibitor (GF120918, 10 μM) in duplicate. The plate was incubated for 2.5 hours in CO2 incubator at 37±1° C., with 5% CO2 at saturated humidity without shaking. In addition, the efflux ratio of each compound was also determined. Test and reference compounds were quantified by LC/MS/MS analysis based on the peak area ratio of analyte/IS. After transport assay, Lucifer yellow rejection assay are applied to determine the cell monolayer integrity. Buffers are removed from both apical and basolateral chambers, followed by the addition of 75 μL of 100 μM lucifer yellow in transport buffer and 250 μL transport buffer in apical and basolateral chambers, respectively. The plate is incubated for 30 minutes at 37° C. with 5% CO2 and 95% relative humidity without shaking. After 30 minutes incubation, 20 μL of lucifer yellow samples are taken from the apical sides, followed by the addition of 60 μL of Transport Buffer. And then 80 μL of lucifer yellow samples are taken from the basolateral sides. The relative fluorescence unit (RFU) of lucifer yellow is measured at 425/528 nm (excitation/emission) with a Molecular Device M2e plate reader.
Data analysis: The apparent permeability coefficient Papp (cm/s) was calculated using the equation: Papp=(dCr/dt)×Vr/(A×C0) Where dCr/dt is the cumulative concentration of compound in the receiver chamber as a function of time (μM/s); Vr is the solution volume in the receiver chamber (0.075 mL on the apical side, 0.25 mL on the basolateral side); A is the surface area for the transport, i.e. 0.0804 cm2 for the area of the monolayer; C0 is the initial concentration in the donor chamber (μM).
The efflux ratio was calculated using the equation: Efflux Ratio=Papp(BA)/Papp(AB) Percent recovery was calculated using the equation: % Recovery=100×[(Vr×Cr)+(Vd×Cd)]/(Vd×C0) Where Vd is the volume in the donor chambers (0.075 mL on the apical side, 0.25 mL on the basolateral side); Cd and Cr are the final concentrations of transport compound in donor and receiver chambers, respectively.
Percent of lucifer yellow in basolateral well is calculated using the equation:
[formula] where RFUApical and RFUBasolateral are the relative fluorescence unit values of lucifer yellow in the apical and basolateral wells, respectively; VApical and VBasolateral are the volume of apical and basolateral wells (0.075 mL and 0.25 mL), respectively. Percent lucifer yellow should be less than 2.

Karpas-422 cell lines = test: Karpas-422 viability assay (Cell Titer-Glo, Day 8); format: cell-based; details: Homo sapiens, KARPAS-422, 192 h, Cell Titer-Glo on Day 8
Method: Karpas-422 cell lines were obtained from DSMZ (Braunschweig, Germany) and were grown in RPMI-1640 media. All media contained 10% fetal bovine serum (FBS) and 1% penicillin/streptomycin (Invitrogen). 20K cells per well were plated onto 96 well compound coated plates. Cells were split and seeded at original plating density (based on the DMSO well counts) every 4 days into plates containing fresh EZH2 inhibitors. Relative cell numbers were assessed by Cell Titer-Glo luminescent cell viability assay (Promega) on Day 8. GraphPad Prism 5 was used for curve fitting and GI50 values were reported.

PRC2 containing wt EZH2 [2] = molecular target: T1, PRC2 containing wt EZH2 (Homo sapiens (Human), UniProt Q15910); test: EZH2 biochemical assay (IC50), 3H-SAM incorporation into biotinylated H3 peptide; details: 30 pM PRC2 with wt EZH2, 3-5 h pre-incubation
T1 sequence (Q15910 whole entry): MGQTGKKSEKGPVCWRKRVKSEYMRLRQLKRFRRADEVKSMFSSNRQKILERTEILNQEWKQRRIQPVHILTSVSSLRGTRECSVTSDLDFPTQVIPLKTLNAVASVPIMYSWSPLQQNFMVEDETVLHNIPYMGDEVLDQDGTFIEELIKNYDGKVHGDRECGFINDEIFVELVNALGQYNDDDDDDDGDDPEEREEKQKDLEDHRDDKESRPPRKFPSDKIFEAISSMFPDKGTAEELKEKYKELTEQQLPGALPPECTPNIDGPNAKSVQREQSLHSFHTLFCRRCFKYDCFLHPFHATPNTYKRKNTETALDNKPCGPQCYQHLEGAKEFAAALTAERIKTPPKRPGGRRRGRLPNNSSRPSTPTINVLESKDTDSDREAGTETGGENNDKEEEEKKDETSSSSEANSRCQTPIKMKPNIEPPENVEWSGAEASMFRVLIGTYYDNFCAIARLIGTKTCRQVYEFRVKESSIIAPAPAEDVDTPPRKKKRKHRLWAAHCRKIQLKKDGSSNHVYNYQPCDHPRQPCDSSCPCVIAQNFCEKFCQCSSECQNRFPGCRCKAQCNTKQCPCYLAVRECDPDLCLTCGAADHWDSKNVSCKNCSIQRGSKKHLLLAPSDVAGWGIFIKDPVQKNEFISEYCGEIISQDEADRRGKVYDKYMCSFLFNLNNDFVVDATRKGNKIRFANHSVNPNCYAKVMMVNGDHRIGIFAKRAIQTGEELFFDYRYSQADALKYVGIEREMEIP
T1 sequence (O75530 whole entry partner): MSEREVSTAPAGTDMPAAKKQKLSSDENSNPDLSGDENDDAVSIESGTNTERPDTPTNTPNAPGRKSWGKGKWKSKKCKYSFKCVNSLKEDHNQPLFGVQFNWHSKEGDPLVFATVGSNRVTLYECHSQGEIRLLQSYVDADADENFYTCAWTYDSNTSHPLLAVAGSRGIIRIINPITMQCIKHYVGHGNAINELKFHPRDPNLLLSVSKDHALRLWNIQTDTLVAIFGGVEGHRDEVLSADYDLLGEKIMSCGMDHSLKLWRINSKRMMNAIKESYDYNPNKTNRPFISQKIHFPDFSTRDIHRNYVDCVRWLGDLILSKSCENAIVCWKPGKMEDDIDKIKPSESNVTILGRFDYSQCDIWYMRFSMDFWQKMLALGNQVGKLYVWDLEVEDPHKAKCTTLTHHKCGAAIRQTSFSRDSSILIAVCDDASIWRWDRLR
T1 sequence (Q15022 whole entry partner): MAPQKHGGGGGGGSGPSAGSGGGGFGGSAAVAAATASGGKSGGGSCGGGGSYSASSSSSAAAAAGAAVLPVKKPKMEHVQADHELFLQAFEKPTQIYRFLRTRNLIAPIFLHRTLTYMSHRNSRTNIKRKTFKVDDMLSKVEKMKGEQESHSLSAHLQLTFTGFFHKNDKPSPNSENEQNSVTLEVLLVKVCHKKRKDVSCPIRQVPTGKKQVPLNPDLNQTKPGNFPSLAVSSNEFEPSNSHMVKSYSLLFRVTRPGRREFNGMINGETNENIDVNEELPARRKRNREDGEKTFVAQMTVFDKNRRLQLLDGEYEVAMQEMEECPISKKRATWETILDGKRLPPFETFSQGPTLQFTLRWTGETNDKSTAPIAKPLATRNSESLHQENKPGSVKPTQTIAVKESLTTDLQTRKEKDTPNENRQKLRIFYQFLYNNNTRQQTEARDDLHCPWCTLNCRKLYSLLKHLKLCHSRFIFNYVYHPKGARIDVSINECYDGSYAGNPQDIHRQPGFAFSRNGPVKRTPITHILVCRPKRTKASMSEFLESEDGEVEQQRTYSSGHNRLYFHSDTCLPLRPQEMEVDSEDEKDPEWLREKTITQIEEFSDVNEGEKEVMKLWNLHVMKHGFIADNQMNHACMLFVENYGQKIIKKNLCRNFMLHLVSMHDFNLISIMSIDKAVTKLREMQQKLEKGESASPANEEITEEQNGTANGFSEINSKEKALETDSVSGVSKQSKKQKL
T1 sequence (Q09028 whole entry partner): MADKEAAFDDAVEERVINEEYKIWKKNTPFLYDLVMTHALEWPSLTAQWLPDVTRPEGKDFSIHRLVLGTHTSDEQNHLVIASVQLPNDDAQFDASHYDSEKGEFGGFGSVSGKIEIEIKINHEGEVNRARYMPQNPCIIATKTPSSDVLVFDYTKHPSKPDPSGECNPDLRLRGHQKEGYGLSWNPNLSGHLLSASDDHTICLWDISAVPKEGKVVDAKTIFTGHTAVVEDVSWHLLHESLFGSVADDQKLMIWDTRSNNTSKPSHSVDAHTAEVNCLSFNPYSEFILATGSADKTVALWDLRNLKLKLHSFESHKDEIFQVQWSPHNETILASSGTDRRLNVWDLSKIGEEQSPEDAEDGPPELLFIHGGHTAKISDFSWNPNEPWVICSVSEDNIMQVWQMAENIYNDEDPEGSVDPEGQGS
T1 sequence (Q6ZN18 whole entry partner): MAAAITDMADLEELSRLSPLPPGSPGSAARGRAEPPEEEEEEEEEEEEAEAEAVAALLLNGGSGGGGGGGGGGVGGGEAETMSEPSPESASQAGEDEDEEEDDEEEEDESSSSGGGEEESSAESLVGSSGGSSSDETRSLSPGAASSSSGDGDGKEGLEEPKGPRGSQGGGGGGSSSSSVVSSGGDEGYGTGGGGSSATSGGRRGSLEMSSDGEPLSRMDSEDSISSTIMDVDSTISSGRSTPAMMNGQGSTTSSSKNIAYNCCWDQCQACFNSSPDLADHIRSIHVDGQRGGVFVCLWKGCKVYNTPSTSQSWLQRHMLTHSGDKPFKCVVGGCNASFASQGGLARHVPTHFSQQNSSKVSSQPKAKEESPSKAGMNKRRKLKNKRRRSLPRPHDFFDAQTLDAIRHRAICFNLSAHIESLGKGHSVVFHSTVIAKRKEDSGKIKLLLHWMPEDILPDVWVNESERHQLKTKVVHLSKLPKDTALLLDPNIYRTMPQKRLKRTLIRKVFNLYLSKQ
Method: EZH2 biochemical assay (IC50): Compound potencies were assessed through incorporation of ^3H-SAM into a biotinylated H3 peptide. Specifically, 30 pM PRC2 containing wt EZH2 (pentameric complex prepared in-house) was pre-incubated with 450 nM SAM, 450 nM ^3H-SAM, 2 μM H3K27me3 activating peptide (H2N-RKQLATKAAR(Kme3)SAPATGGVKKP-amide) and compounds (as 10 point duplicate dose response titrations in DMSO, final assay 0.8% DMSO (v/v)) for 3-5 h in 50 mM Tris (pH 8.5), 1 mM DTT, 0.07 mM Brij-35, 0.1% BSA, and 0.8% DMSO in a total volume of 12.5 μl. Reaction was initiated with biotinylated H3 substrate peptide (H2N-RKQLATKAAR(Kmel)SAPATGGVKKP-NTPEGBiot) as a 2 μM stock in 12.5 μl of buffer and allowed to react at room temperature for 18-22 h. Quenching was accomplished by addition of 20 μl of STOP solution (50 mM Tris (pH 8.5), 200 mM EDTA, 2 mM SAH). 35 μl of the quenched solution was transferred to streptavidin coated FlashPlates (PerkinElmer), incubated 1-2 h, washed, and read in a TopCount Reader (PerkinElmer). IC50s were calculated in Genedata Screener using non-linear least square four parameter fits, where the four parameters were IC50, Hill slope, pre-transitional baseline (0% INH), and post-transitional baseline (100% INH).

PRC2 containing wt EZH2 [3] = molecular target: T1, PRC2 containing wt EZH2; test: EZH2 residence time assay (100-fold dilution of enzyme-inhibitor complex); format: biochemical; details: recovery of enzyme activity after 100-fold dilution; read-out: EZH2 residence time (converted)
Method: EZH2 residence time assay: Compound residence times were assessed by monitoring the recovery of enzyme activity following a 100-fold dilution of pre-formed enzyme-inhibitor complex (dilution reaction), and comparing it to the activity of an undiluted control with the same final concentrations of all reagents (control reaction). Enzyme activity was measured by incorporation of ^3H-SAM into a biotinylated H3 peptide. For the dilution reaction, 20 nM PRC2 containing wt EZH2 (pentameric complex prepared in-house) was pre-incubated with 1 μM activating peptide (H2N-RKQLATKAAR(Kme3)SAPATGGVKKP-amide) and compound at 600 times its Ki for 2 h in 40 μL of buffer (50 mM Tris pH 8.5, 4 mM DTT, 1 mM MgCl2, 0.07 mM Brij-35, and 0.1 mg/mL BSA), then diluted 100-fold and the reaction initiated by transferring 1.4 μL to a 138.6 μL volume of buffer containing 1 μM activating peptide, 5.05 μM substrate peptide (H2N-[…]-NTPEGbiot), 1.01 μM SAM, and 1.01 μM ^3H-SAM. […] Reactions were quenched at various time points spanning up to 10 hours, by transferring 8μL aliquots from the reaction vessel to a plate containing 8μL per well of STOP solution (50 mM Tris pH 8.5, 200 mM EDTA, 2 mM SAH). After the last time point, 12 μL of the quenched solutions were transferred to a streptavidin coated FlashPlate (PerkinElmer) containing 40 μL per well of STOP solution, incubated 1-8 h, washed, and read in a TopCount plate reader (PerkinElmer).
A custom script was used to fit control reaction progress data to a straight line and dilution reaction progress data:
[formula] Where y is the product formed, t is the reaction time, vi is the initial velocity, vs is the steady state velocity, and kobs is the rate constant for the transition from the initial velocity phase of the curve to the steady state velocity phase of the curve. In fitting the dilution reaction progress data, vs was constrained to the slope of the line fitted to the control reaction progress data. The fitted value of kobs was then transformed into residence time:
[formula] Where τ is residence time, Ki is the inhibition constant, [EI] is the calculated equilibrium concentration of enzyme-inhibitor complex, [E] is the calculated equilibrium concentration of free enzyme, and [I] is the calculated equilibrium concentration of free inhibitor.

H3K27me3 in Hela cells = test: H3K27me3 Alpha Hela Assay (AlphaLISA); format: cell-based; details: Homo sapiens, HeLa, 72 h
Method: H3K27me3 Alpha Hela Assay (AlphaLISA). Ten different doses of each test compound (in a series of 3-fold dilutions) were plated in duplicate 384-well tissue culture treated plates (Catalog #6007680; Perkin Elmer, Waltham, Mass.). Hela cells grown in culture were trypsinized and counted using a Countess® cell counter (Catalog #C10281; Life Technologies, Grand Island, N.Y.). Cell were diluted to 67,000 cells per mL in10% DMEM (Catalog #10569-010 Life Technologies, Grand Island, N.Y.) and 15 μL (1,000 cells) were plated into each well using the Biotek MicroFlo™ Select Dispenser (BioTek Instruments, Inc. Vermont, USA),) of the 384-well plate. Plates were incubated at 37° C./5% CO2 for 72 hrs. One of the duplicate plates was processed for HeLa assay and the other for viability. 5 μL of Cell-Histone Lysis buffer (1×) (Catalog #AL009F1 Perkin Elmer; Waltham, Mass.) per well was added to the plate processed for AlphaLISA and the plate was incubated at RT for 30 minutes on a plate shaker with low speed (Model# 4625-Q Thermo Scientific; Waltham, Mass.). Then, 10 μL per well Histone Extraction buffer (catalog #AL009F2; Perkin Elmer; Waltham, Mass.) was added and the plate further incubated at RT for 20 min on plate shaker with low speed. Next, 10 μL of 5× mix of anti-K27me3 acceptor beads plus Biotinylated anti-Histone H3 (C-ter) Antibody (diluted to 3 nM final) (Catalog #AL118 Perkin Elmer; Waltham, Mass.) was added in each well. Dilution of the acceptor beads and anti-Histone H3 was done in 1× Histone Detection buffer (Catalog #AL009F3 Perkin Elmer; Waltham, Mass.) which was produced by diluting the 10× stock provided. The plate was sealed with an aluminum plate sealer and incubated at 23° C. for 60 min. Next, 10 μL 5× solution of Streptavidin Donor beads were added (Catalog #6760002 Perkin Elmer; Waltham, Mass.) (20 μg/mL final in 1× Histone Detection Buffer), =plate was sealed with Aluminum plate sealer and incubated at 23° C. for 30 min. The plates were then read using an EnVision-Alpha Reader (model #2104 Perkin Elmer; Waltham, Mass.). […]

| SMILES | Papp at 2.5 h, 2 μM [1] [×10⁻⁶ cm/s] | efflux ratio at 2.5 h, 2 μM [1] | GI50 (Karpas-422 cell lines) [nM] | IC50 (PRC2 containing wt EZH2 [2]) [nM] | residence time (PRC2 containing wt EZH2 [3]) [min] | EC50 (H3K27me3 in Hela cells) [nM] |
| --- | --- | --- | --- | --- | --- | --- |
| CSc1cc(C)[nH]c(=O)c1CNC(=O)c1cc(Cl)c2c(c1C)OC(C)(C1CCC(N3CC(F)(F)C3)CC1)O2 (single isomer, unassigned) [Example 7-Enantiomer 2] | 12 | 0.71 | 12 | 0.12 | 1980 | – |
| CSc1cc(C)[nH]c(=O)c1CNC(=O)c1cc(Cl)c2c(c1C)O[C@@](C)([C@H]1CC[C@H](N(C)C)CC1)O2 [Example 4] | 0.62 | 2.3 | 4 | 0.038 | – | 0.51 |
